SMILES strings stand for the structures.

Chain of POLRMT (O00411 42-1230): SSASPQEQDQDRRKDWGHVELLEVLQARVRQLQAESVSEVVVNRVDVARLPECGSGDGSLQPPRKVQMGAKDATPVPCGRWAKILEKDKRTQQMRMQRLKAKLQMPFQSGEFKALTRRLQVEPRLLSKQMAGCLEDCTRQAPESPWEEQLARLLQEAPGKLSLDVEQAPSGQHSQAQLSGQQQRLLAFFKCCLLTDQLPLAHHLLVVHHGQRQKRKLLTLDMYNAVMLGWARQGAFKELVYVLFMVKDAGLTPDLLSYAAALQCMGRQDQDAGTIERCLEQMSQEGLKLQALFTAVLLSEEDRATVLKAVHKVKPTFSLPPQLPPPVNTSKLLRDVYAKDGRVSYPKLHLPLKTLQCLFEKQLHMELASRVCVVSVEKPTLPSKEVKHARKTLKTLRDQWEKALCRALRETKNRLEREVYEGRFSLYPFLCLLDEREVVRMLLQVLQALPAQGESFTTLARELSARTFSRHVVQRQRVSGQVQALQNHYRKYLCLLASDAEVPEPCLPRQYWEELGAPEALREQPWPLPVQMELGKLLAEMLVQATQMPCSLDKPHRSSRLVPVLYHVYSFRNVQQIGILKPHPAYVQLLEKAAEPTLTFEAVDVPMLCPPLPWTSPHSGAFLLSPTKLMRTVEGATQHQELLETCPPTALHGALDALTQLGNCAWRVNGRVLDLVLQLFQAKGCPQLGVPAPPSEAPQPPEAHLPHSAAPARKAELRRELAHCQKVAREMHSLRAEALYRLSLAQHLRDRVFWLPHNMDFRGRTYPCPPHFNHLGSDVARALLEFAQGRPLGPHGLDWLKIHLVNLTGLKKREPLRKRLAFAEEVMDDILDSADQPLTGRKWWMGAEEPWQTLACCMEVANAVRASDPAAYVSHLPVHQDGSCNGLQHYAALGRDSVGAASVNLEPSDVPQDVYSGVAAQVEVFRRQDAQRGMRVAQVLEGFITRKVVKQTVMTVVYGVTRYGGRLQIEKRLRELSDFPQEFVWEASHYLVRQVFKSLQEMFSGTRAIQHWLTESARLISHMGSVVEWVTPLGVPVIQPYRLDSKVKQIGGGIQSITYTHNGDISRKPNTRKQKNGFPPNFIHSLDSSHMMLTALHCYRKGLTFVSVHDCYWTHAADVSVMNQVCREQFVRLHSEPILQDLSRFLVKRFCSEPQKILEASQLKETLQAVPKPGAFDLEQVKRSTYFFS

One assay addresses POLRMT (Homo sapiens, UniProt O00411). Put plainly: homogeneous TR-FRET assay of mitochondrial transcription (inhibition of POLRMT). The class given is biochemical. Particulars: isoquinolinone compounds (Table 1). Summed up: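 Recombinant POLRMT (7.5 nM) with TFB2M, TFAM and linearized LSP plasmid template, 500 μM NTPs, pH 7.5 Mg buffer; 60 min at 37° C. Reaction stopped with EDTA/high-salt buffer, 407 bp RNA transcript detected by hybridized ATTO647/Europium-cryptate probe pair; TR-FRET 665/620 nm ratio taken as transcript yield.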
The compound `Cc1ccccc1-c1c[nH]c(=O)c2cc(O[C@H](C)C(=O)N3C4CCCC3CC4)ccc12` [Example 86, 7-(((2R)-1-(8-azabicyclo[3.2.1]octan-8-yl)-1-oxopropan-2-yl)oxy)-4-(o-tolyl)isoquinolin-1(2H)-one] had an IC50 of 20 nM. Turning to `Cc1ccccc1-c1c[nH]c(=O)c2cc(OC(C)C(N)=O)ccc12` (centres unmarked) [Example 71, 2-((1-oxo-4-(o-tolyl)-1,2-dihydroisoquinolin-7-yl)oxy)propanamide], the IC50 is 1000 nM. This IC50 lies about 50-fold higher than the previous one. `C[C@@H](Oc1ccc2c(-c3ccc(F)cc3Cl)c[nH]c(=O)c2c1)C(=O)N1CCO[C@H](C(=O)O)C1` [Example 121, (S)-4-((R)-2-((4-(2-chloro-4-fluorophenyl)-1-oxo-1,2-dihydroisoquinolin-7-yl)oxy)propanoyl)morpholine-2-carboxylic acid] yielded an IC50 of 200 nM. Compound `C[C@@H](Oc1ccc2c(-c3ccc(F)cc3Cl)c[nH]c(=O)c2c1)C(=O)N1CC2CCC(C1)O2` [Example 105, 7-(((2R)-1-(8-oxa-3-azabicyclo[3.2.1]octan-3-yl)-1-oxopropan-2-yl)oxy)-4-(2-chloro-4-fluorophenyl)isoquinolin-1(2H)-one] had an IC50 of 200 nM. In other words, the sub-micromolar range.

Turning to `Cc1ccccc1-c1c[nH]c(=O)c2cc(NC(=O)C(C)C)ccc12` [Example 30, N-(1-oxo-4-(o-tolyl)-1,2-dihydroisoquinolin-7-yl)isobutyramide], the IC50 was found to be 2000 nM.

`CC(=O)N1CC[C@H](Oc2ccc3c(-c4ccccc4C)c[nH]c(=O)c3c2)C1` [Example 17, (S)-7-((1-acetylpyrrolidin-3-yl)oxy)-4-(o-tolyl)isoquinolin-1(2H)-one] registered an IC50 of 82000 nM.

`Cc1cccc(C)c1-c1c[nH]c(=O)c2cc(O[C@H](C)C(=O)O)ccc12` [Example 111, (R)-2-((4-(2,6-dimethylphenyl)-1-oxo-1,2-dihydroisoquinolin-7-yl)oxy)propanoic acid] showed an IC50 of 90 nM. On to `CC[C@@H](Oc1ccc2c(-c3ccccc3C)c[nH]c(=O)c2c1)C(=O)O` [Example 126, (R)-2-((1-oxo-4-(o-tolyl)-1,2-dihydroisoquinolin-7-yl)oxy)butanoic acid], for which the IC50 turned out to be 400 nM. Still for that read-out and setting: next, `Cc1ccccc1-c1c[nH]c(=O)c2cc(NC(C)C(=O)N(C)C)ccc12` (centres unmarked) [Example 47]: 11000 nM; `Cc1cccc(C)c1-c1c[nH]c(=O)c2cc(OCC#N)ccc12` [Example 99, 2-((4-(2,6-dimethylphenyl)-1-oxo-1,2-dihydroisoquinolin-7-yl)oxy)acetonitrile]: 20 nM.

The compound `CC(=O)Nc1ccc2c(-c3ccccc3C)c[nH]c(=O)c2c1` [Example 31, N-(1-oxo-4-(o-tolyl)-1,2-dihydroisoquinolin-7-yl)acetamide] showed an IC50 of 8000 nM. In turn, `Cc1cc(F)cc(C)c1-c1c[nH]c(=O)c2cc(OCC(=O)O)ccc12` [Example 110, 2-((4-(4-fluoro-2,6-dimethylphenyl)-1-oxo-1,2-dihydroisoquinolin-7-yl)oxy)acetic acid] registered an IC50 of 25000 nM. For `COCCOc1ccc2c(-c3ccccc3C)c[nH]c(=O)c2c1` [Example 9, 7-(2-methoxyethoxy)-4-(o-tolyl)isoquinolin-1(2H)-one], the IC50 came out at 3000 nM. `CC(C#N)Oc1ccc2c(-c3ccc(F)cc3Cl)c[nH]c(=O)c2c1` (single isomer, unassigned) [Example 50, 2-((4-(2-chloro-4-fluorophenyl)-1-oxo-1,2-dihydroisoquinolin-7-yl)oxy)propanenitrile]: inhibition was half-maximal at 600 nM (IC50). As for `COCC(Oc1ccc2c(-c3ccccc3C)c[nH]c(=O)c2c1)C(=O)O` (centres unmarked) [Example 51, 3-methoxy-2-((1-oxo-4-(o-tolyl)-1,2-dihydroisoquinolin-7-yl)oxy)propanoic acid], it took 6000 nM to reach half-maximal inhibition (IC50).

Compound `Cc1ccccc1-c1c[nH]c(=O)c2cc(NC(=O)C3CCN(C)CC3)ccc12` [Example 43, 1-methyl-N-(1-oxo-4-(o-tolyl)-1,2-dihydroisoquinolin-7-yl)piperidine-4-carboxamide] yielded an IC50 greater than 100000 nM. The compound `Cc1ccccc1-c1c[nH]c(=O)c2cc(NC(C)C(=O)N3CCOCC3)ccc12` (centres unmarked) [Example 46] displayed an IC50 of 2000 nM. Still for that read-out and setting: for `Cc1ccccc1-c1c[nH]c(=O)c2cc(OCC#N)ccc12` [Example 36, 2-((1-oxo-4-(o-tolyl)-1,2-dihydroisoquinolin-7-yl)oxy)acetonitrile] the value was 200 nM; for `CC(=O)N(C)Cc1ccc2c(-c3ccccc3C)c[nH]c(=O)c2c1` [Example 45, N-methyl-N-((1-oxo-4-(o-tolyl)-1,2-dihydroisoquinolin-7-yl)methyl)acetamide], greater than 100000 nM. Compound `Cc1ccc(-c2c[nH]c(=O)c3cc(OCC#N)ccc23)c(Cl)c1` [Example 89, 2-((4-(2-chloro-4-methylphenyl)-1-oxo-1,2-dihydroisoquinolin-7-yl)oxy)acetonitrile] came in with an IC50 of 300 nM. For the compound `Cc1sccc1-c1c[nH]c(=O)c2cc(OCC(N)=O)ccc12` [Example 134, 2-((4-(2-methylthiophen-3-yl)-1-oxo-1,2-dihydroisoquinolin-7-yl)oxy)acetamide], the IC50 was 21000 nM. Same read-out and setting: for `C[C@@H](Oc1ccc2c(-c3ccc(F)cc3Cl)c[nH]c(=O)c2c1)C(=O)N1CCC[C@H](C(=O)O)C1` [Example 62, (S)-1-((R)-2-((4-(2-chloro-4-fluorophenyl)-1-oxo-1,2-dihydroisoquinolin-7-yl)oxy)propanoyl)piperidine-3-carboxylic acid] the value was 60 nM; for `CCC(=O)N1CCN(C(=O)[C@@H](C)Oc2ccc3c(-c4ccc(F)cc4Cl)c[nH]c(=O)c3c2)CC1` [Example 117, (R)-4-(2-chloro-4-fluorophenyl)-7-((1-oxo-1-(4-propionylpiperazin-1-yl)propan-2-yl)oxy)isoquinolin-1(2H)-one], 500 nM; for `Cc1c(F)cccc1-c1c[nH]c(=O)c2cc(OCC(N)=O)ccc12` [Example 136, 2-((4-(3-fluoro-2-methylphenyl)-1-oxo-1,2-dihydroisoquinolin-7-yl)oxy)acetamide], 3000 nM. Turning to `Cc1ccccc1-c1c[nH]c(=O)c2cc(C(=O)N(C)C)ccc12` [Example 23, N,N-dimethyl-1-oxo-4-(o-tolyl)-1,2-dihydroisoquinoline-7-carboxamide], the IC50 is 75000 nM. As for `Cc1ccccc1-c1c[nH]c(=O)c2cc(O[C@H](C)C(=O)N3CCCC(F)(F)C3)ccc12` [Example 81, (R)-7-((1-(3,3-difluoropiperidin-1-yl)-1-oxopropan-2-yl)oxy)-4-(o-tolyl)isoquinolin-1(2H)-one], the IC50 is 30 nM. For the compound `Cc1ccccc1-c1c[nH]c(=O)c2cc(OC(C)C(F)(F)F)ccc12` (centres unmarked) [Example 61, 4-(o-tolyl)-7-((1,1,1-trifluoropropan-2-yl)oxy)isoquinolin-1(2H)-one], the half-maximal inhibitory concentration (IC50) amounted to 400 nM. Consider `Cc1ccccc1-c1c[nH]c(=O)c2cc(O[C@H](C)C(=O)N3CCCC(S(C)(=O)=O)C3)ccc12` (single isomer, unassigned) [Example 98], for which half-maximal inhibition (IC50) required 300 nM. The IC50 values of the last two compounds are within 1.5-fold of each other. `Cc1ccccc1-c1c[nH]c(=O)c2cc(OC(C)C#N)ccc12` (single isomer, unassigned) [Example 12, 2-((1-oxo-4-(o-tolyl)-1,2-dihydroisoquinolin-7-yl)oxy)propanenitrile] displayed a concentration for half-maximal inhibition (IC50) of 200 nM.

On to `Cc1ccccc1-c1c[nH]c(=O)c2cc(OC(C)C(N)=O)ccc12` (single isomer, unassigned) [Example 72], for which the midpoint of inhibition, the IC50, lay at 17000 nM. Compared with the last compound, the IC50 is about 85-fold higher. Regarding `C[C@@H](Oc1ccc2c(-c3ccc(F)cc3Cl)c[nH]c(=O)c2c1)C(=O)N1CCO[C@H](CO)C1` [Example 106, 4-(2-chloro-4-fluorophenyl)-7-(((R)-1-((S)-2-(hydroxymethyl)morpholino)-1-oxopropan-2-yl)oxy)isoquinolin-1(2H)-one], the IC50 worked out at 600 nM.

The compound `Cc1ccccc1-c1c[nH]c(=O)c2cc(CN)ccc12` [Example 38, 7-(aminomethyl)-4-(o-tolyl)isoquinolin-1(2H)-one] returned an IC50 greater than 100000 nM. In the case of `Cc1ccccc1-c1c[nH]c(=O)c2cc(OC(C)C)ccc12` [Example 4, 7-isopropoxy-4-(o-tolyl)isoquinolin-1(2H)-one], half-maximal inhibition (IC50) required 400 nM. With `Cc1ccccc1-c1c[nH]c(=O)c2cc(O[C@H](C)C(=O)N3CCOCC3)ccc12` [Example 78, (R)-7-((1-morpholino-1-oxopropan-2-yl)oxy)-4-(o-tolyl)isoquinolin-1(2H)-one], the IC50 was 30 nM.

The compound `COCC(=O)Nc1ccc2c(-c3ccccc3C)c[nH]c(=O)c2c1` [Example 32, 2-methoxy-N-(1-oxo-4-(o-tolyl)-1,2-dihydroisoquinolin-7-yl)acetamide] yielded a half-inhibitory concentration (IC50) of 22000 nM.

Staying with this assay, now noted: quinolinone compounds (Table 2).
As for `Cc1ccccc1-c1cc(=O)[nH]c2cc(O[C@H](C)C(=O)N3CCC(C(=O)O)CC3)ccc12` [Example Q14, (R)-1-(2-((2-oxo-4-(o-tolyl)-1,2-dihydroquinolin-7-yl)oxy)propanoyl)piperidine-4-carboxylic acid], the 50% inhibitory concentration (IC50) worked out at 7000 nM. Compound `COc1ccc2c(-c3ccc(F)cc3Cl)cc(=O)[nH]c2c1` [Example Q1, 4-(2-chloro-4-fluorophenyl)-7-methoxyquinolin-2(1H)-one] had an IC50 greater than 100000 nM. Compound `Cc1ccccc1-c1cc(=O)[nH]c2cc(O[C@H](C)C(=O)O)ccc12` [Example Q13, (R)-2-((2-oxo-4-(o-tolyl)-1,2-dihydroquinolin-7-yl)oxy)propanoic acid] displayed an IC50 of 3000 nM. In turn, `COc1ccc2c(-c3ccccc3)cc(=O)[nH]c2c1` [Example Q9, 7-methoxy-4-phenylquinolin-2(1H)-one] returned an IC50 greater than 100000 nM.

Consider `Cc1ccccc1-c1cc(=O)[nH]c2cc(OCC(C)C)ccc12` [Example Q12, 7-isobutoxy-4-(o-tolyl)quinolin-2(1H)-one], for which it took 18000 nM to reach half-maximal inhibition (IC50). Compound `Cc1ccccc1-c1cc(=O)[nH]c2cc(O[C@@H](C)C(=O)N(C)C)ccc12` (single isomer, unassigned) [Example Q8] came in with an IC50 greater than 100000 nM.

For the origin of these results see US20240391875A1, “ISOQUINOLINONES AND QUINOLINONES AS MODULATORS OF POLRMT” (Pretzel Therapeutics, Inc., priority 2021, published 2024).
